Test [1] concerns the target T1, β-receptor (guinea pig right atria) (Cavia porcellus, UniProt H0W3H1).
T1 construct: from tissue; host or cells: guinea pig right atria
Put plainly: Beta-blocking activity in vitro, guinea pig right atria (antagonism of isoproterenol-induced rate response). Type of test: cell-based. The conditions noted are these: 60-minute incubation, 37° C, Furchgott method; for Kb: read-out: pA2 Atria (converted). On the procedure:
Several of the compounds of the present invention were tested for β-blocking activity in vitro using guinea pig right atria and guinea pig tracheal strips mounted in a tissue bath containing oxygenated (95% 02 -5% CO2) Krebs physiological salt solution at 37° C. Each tissue was suspended between a fixed glass rod and a Statham Universal Transducer connected to a Beckman recorder. Atria were allowed to beat spontaneously under a loading tension of approximately 0.5 gm. Intrinsic depressant or stimulant activity was determined for each compound by progressively increasing concentrations in the tissue baths at 60-minute intervals. Tissues were not washed between increments. The maximum concentration showing little or no cardiodepressant activity was chosen for blockade experiments. Changes in rate in response to isoproterenol, a standard β-receptor agonist, were measured in the absence and presence of test compounds. Spiral strips of guinea pig trachea were suspended under 5 gm resting tension and incubated with phentolamine, tropolone and cocaine. Active tension was generated by addition of carbachol (3.0×10^-7 M) and decreases in tension in response to isoproterenol were quantitated. Cumulative concentration-response curves were produced with isoproterenol both before and after 60-minute incubation of test compounds with atria and trachea. Compounds with β-blocking activity shifted concentration-response curves to the right. The blocking potency of test compounds was estimated by computing pA2 values (--log K8) by the method of Furchgott, the Pharmacological Differentiation of Adrenergic Receptors, Ann. N.Y. Acad. Sci., 139:553-570 (1967). […] The degree of cardioselectivity was estimated from the ratio, Kβ trachea/Kβ atria (10^(pA 2^atria-pA 2^trachea)). A ratio greater than one indicates cardioselectivity. Test drugs were dissolved in distilled water and added to the bath (30 mL) in a volume of 10 or 100 μL. All of the test compounds are active β-blockers.

Test [2] relates to β-receptor (heart rate response to isoproterenol). The test can be described thus: Duration and potency of beta-blocking action in vivo (3-hour infusion, isoproterenol challenge, pentobarbital-anesthetized dogs). Details: species or system dog. On the procedure:
The duration of β-blockage was determined in vivo using pentobarbital-anesthetized dogs instrumented for measurement of heart rate using a Beckman cardiotachometer triggered electronically by a phasic aortic blood pressure signal. Both vagus nerves were severed in the cervical region and the animals were mechanically ventilated. The experimental design used employed a 3-hour infusion of test compound. Bolus doses of isoproterenol (0.5 μg/kg) were used to assess the degree of β-blockage and recovery from β-blockage after […] of the infusion. The doses were spaced at 10-minute intervals and were given before, during and following the infusion of test compounds. The infusion rate was adjusted so that at the end of the 3-hour infusion period the degree of isoproterenol inhibition averaged about 50% of control. Following termination of blocker infusion, percent recovery from β-blockade was computed and the time associated with 80% recovery estimated.

T1 sequence (H0W3H1 1-470): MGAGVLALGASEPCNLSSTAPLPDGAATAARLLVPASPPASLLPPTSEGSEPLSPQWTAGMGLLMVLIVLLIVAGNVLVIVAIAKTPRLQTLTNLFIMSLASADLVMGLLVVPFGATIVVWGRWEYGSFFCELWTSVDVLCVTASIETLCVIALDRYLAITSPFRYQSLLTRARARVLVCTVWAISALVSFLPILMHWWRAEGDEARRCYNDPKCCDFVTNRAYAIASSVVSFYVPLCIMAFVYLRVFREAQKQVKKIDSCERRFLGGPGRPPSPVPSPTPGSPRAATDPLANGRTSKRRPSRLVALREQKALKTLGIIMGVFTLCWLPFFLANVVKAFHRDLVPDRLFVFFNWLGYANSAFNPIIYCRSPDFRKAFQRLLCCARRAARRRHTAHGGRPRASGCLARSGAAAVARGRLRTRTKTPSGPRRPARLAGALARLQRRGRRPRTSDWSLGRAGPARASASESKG

On to `CC(C)(C)NCC(O)COCc1ccc(O)c(O)c1` (stereo not drawn) [Compound 4a], for which, in test [1], the “pA2 Atria” value was determined as 6.5. Further, the “In Vivo Potency” value in test [2] (anesthetized dogs, infusion rate adjusted to about 50% isoproterenol inhibition at end of 3-hour infusion) was determined as 112 mcg/k/m. Also, the “In Vivo % I” value in test [2] (isoproterenol inhibition (isoproterenol 0.5 μg/kg bolus), dogs, 3-hour infusion at the listed potency rate) stood at 45%. In addition, the “DOA (Time for rec. in min.) 50%” value in test [2] (time to 50% recovery from β-blockade after termination of 3-hour infusion, dogs) stood at 5 min. Further, the “DOA (Time for rec. in min.) 80%” value in test [2] (time to 80% recovery from β-blockade after termination of 3-hour infusion, dogs, estimated) is 16 min.
Take `CC(C)(C)NCC(O)COCc1cc(O)c(O)cc1F` (stereo not drawn) [Compound 4b]: in test [1], the “pA2 Atria” value was found to be 7.0.
Still for that read-out and setting: then `Cc1cc(O)c(O)cc1COCC(O)CNC(C)(C)C` (stereo not drawn) [Compound 4c], with 6.0.
`CC(C)(C)NCC(O)COCc1cc(O)cc(O)c1` (stereo not drawn) [Compound 5a]: the Kb in test [1] is 316 nM.
On the same count and under the same terms, the figure for `CC(C)(C)NCC(O)COCc1cc(O)c(O)c(O)c1` (stereo not drawn) [Compound 5b] is 1000 nM; for `CC(C)C(=O)NCC(C)(C)NCC(O)COCc1cc(O)cc(O)c1` (stereo not drawn) [Compound 5c] it is 79.4 nM; for `CC(C)(CNC(=O)c1ccccc1)NCC(O)COCc1cc(O)cc(O)c1` (stereo not drawn) [Compound 5d] it is 79.4 nM.
The same measure, in the same setting: then `CC(C)(CNC(=O)C1CCCCC1)NCC(O)COCc1cc(O)cc(O)c1` (stereo not drawn) [Compound 5e], with 200 nM.

These data come from US5064827A, “Polyhydroxybenzyloxpropanolamines” (Du Pont Merck Pharmaceutical Company, priority 1990, dated 1991).
